# Assay results published in ChEMBL document CHEMBL4033706, “Synthesis of novel acyl selenoureido benzensulfonamides as carbonic anhydrase I, II, VII and IX inhibitors” (Bioorg Med Chem, 2017).
# Molecular target: Carbonic anhydrase 9 (Homo sapiens, UniProt Q16790)
# Description: Inhibition of recombinant human carbonic anhydrase-9 assessed as reduction in CO2 hydration preincubated for 15 mins followed by CO2 addition measured for 10 to 100 secs by stopped-flow assay
row,SMILES,Ki
1,Cc1cccc(C(=O)NC(=[Se])Nc2cccc(S(N)(=O)=O)c2)c1,43.9 nM
2,CC(=O)Oc1ccccc1C(=O)NC(=[Se])Nc1ccc(S(N)(=O)=O)cc1,13.6 nM
3,NS(=O)(=O)c1ccc(CCNC(=[Se])NC(=O)c2ccc3c(c2)OCO3)cc1,105 nM
4,NS(=O)(=O)c1ccccc1NC(=[Se])NC(=O)c1ccccc1,284 nM
5,NS(=O)(=O)c1cccc(NC(=[Se])NC(=O)c2ccccc2)c1,374 nM
6,Cc1cccc(C(=O)NC(=[Se])NCCc2ccc(S(N)(=O)=O)cc2)c1,146 nM
7,NS(=O)(=O)c1ccc(NC(=[Se])NC(=O)c2ccccc2)cc1,4.6 nM
8,CC(=O)Oc1ccccc1C(=O)NC(=[Se])Nc1cc(S(N)(=O)=O)ccc1O,80.8 nM
9,NS(=O)(=O)c1cccc(NC(=[Se])NC(=O)c2ccc(C(F)(F)F)cc2C(F)(F)F)c1,4700 nM
10,NS(=O)(=O)c1ccc(CCNC(=[Se])NC(=O)c2ccc(-c3ccccc3)cc2)cc1,4870 nM
11,Cc1cc(C(=O)NC(=[Se])Nc2cc(S(N)(=O)=O)ccc2O)ccc1Br,5.8 nM
12,NS(=O)(=O)c1ccc(NC(=[Se])NC(=O)c2cc(Br)cc(OC(F)(F)F)c2)cc1,3.5 nM
13,NS(=O)(=O)c1ccc(CCNC(=[Se])NC(=O)c2ccccc2)cc1,7.2 nM
14,NS(=O)(=O)c1ccc(O)c(NC(=[Se])NC(=O)c2ccc(-c3ccccc3)cc2)c1,69.1 nM
15,CCCCCCCc1ccc(C(=O)NC(=[Se])Nc2ccc(S(N)(=O)=O)cc2)cc1,25.1 nM
16,NS(=O)(=O)c1ccc(NC(=[Se])NC(=O)c2ccc3c(c2)OCO3)cc1,129 nM
